For one data set, the system named is human VEGF promoter. The data set is described as follows: VEGF promoter luciferase reporter in U251. Type of data set: cell-based. As to conditions: U251, 1 or 3 μM, 24 hours. As for the experimental part: U251 cells expressing luciferase reporter containing human VEGF promoter were incubated with various concentrations of COH-SR4 (0, 1, or 3 μM) for 24 hours. Luciferase activity was determined and normalized to the cell number for each treatment. Data were represented as a ratio to vehicle control that was treated by DMSO.

Another data set concerns AMPK, ACC. The data set is described as follows: AMP:ATP ratio and AMPK/ACC phosphorylation in liver of db/db mice. Type of data set: in vivo, mouse. As to conditions: 5 weeks. As for the experimental part: ATP production from cells treated with test compounds were measured using the Luminescent ATP Detection Assay Kit. AMP, ATP and ADP were measured by UV-HPLC.
All animal experiments were carried out in accordance with the protocols approved by the Institutional Animal Care and Use Committee of the City of Hope. Nine-week old male C57BL/6J mice fed on high fat diet (HFD, 60% fat) and 10-week old db/db mice were given COH-SR4 (5 mg/kg B.W.) or vehicle (corn oil) via oral gavage every other day for six and five weeks, respectively. Oral glucose tolerance test was performed on animals after an overnight fast. All other metabolic parameters were measured at the end of study. Liver samples were stained with H&E and Oil Red O.
Total intracellular ATP production in cells treated with either 5 μM COH-SR4 or 5 μM FCCP was measured by bioluminescence assay and expressed as percentage of time-matched vehicle (DMSO) control (FIG. 84A). Intracellular AMP: ATP ratios increased in HepG2 liver carcinoma cells following 1 h treatment with either 5 μM COH-SR4 or 5 μM FCCP (FIG. 84B) and in liver of db/db mice treated with COH-SR4 (5 mg/kg B.W.) for 5 weeks (FIG. 84C). All data represented are mean±SEM, *P<0.05.
Treatment with the AMPK inhibitor Compound C (20 μM) diminished AMPK activation and ACC phosphorylation by either uncoupler COH-SR4 or FCCP (FIG. 84F).

Data set [1] can be described thus: COH-SR4 in mice serum, LC-MS/MS. As to conditions: 4 mg/kg b.w. oral, alternate day, 8 weeks; blood within 2 h of final dose. Type of data set: in vivo, mouse. Here is the method: Mice (n=3 each for control and COH-SR4 treatment) were administered either 0.2 mL corn oil or 100 μg COH-SR4/0.2 mL corn oil/mice (4 mg/kg b.w.) by oral gavage on alternate days for 8 weeks. On the last day, the blood was collected within 2 h after final dosage. To 50 μL serum was added 0.5 μL 5 μg/μL 6D-SR4 standard in DMSO and 500 μL ethyl acetate. The samples were vortexed for 1 min and then spun down in a bench-top centrifuge for 2 min. Then 400 μL of the organic layer was collected, evaporated to dryness and redisolved in 500 μL methanol for analysis. After an initial concentration test, 50 μL were taken and diluted to 2 mL with methanol for final analysis. […]
COH-SR4 and 6D-SR4 were separated by HPLC using an Agilent Zorbax 0.5×150 mm C18, 5 μm column with a flow rate of 50 μL/min and a gradient of 65% B to 95% B over 4 min, then 2 min at 95% B and 1 min back to 65% B. Buffer A was 5 mM ammonium formate and buffer B was 5 mM ammonium formate in methanol. The elute from the column was introduced into an Agilent 6410 triple quadrupole tandem mass spectrometer by electrospray ionization (ESI) through a capillary maintained at 4 kV, using 6 L/min nitrogen nebulizing gas at 350° C. and 15 psi, fragmentor voltage=190 V. The following transitions were monitored in positive ion mode: 344>127.1 and 355>130.1 (collision energy=28 V), 344>161.9 and 355>164.9 (C.E.=20 V) for COH-SR4 and 6dSR4. […]

The subject of a further data set is A2058. The data set is described as follows: Colony formation assay, A2058. Type of data set: cell-based, human. As for the experimental part: Cell survival was evaluated using a standard colony-forming assay. […] After 7 or 10 days, adherent colonies were fixed, stained with 0.5% methylene blue for 30 min and colonies were counted using the Innotech Alpha Imager HP (91).

The next data set deals with H1618. The data set is described as follows: Colony formation assay, H1618. Format: cell-based, human. As to conditions: 1.5 μM. Here is the method: (§1) Cell survival was evaluated using a standard colony-forming assay. In total, 1×10^5 cells/mL were incubated with COH-SR4 (1.5 μM or 5 μM) or elesclomol (5 μM) for 24 h, and aliquots of 50 or 100 μL were added to 60 mm size petri dishes, containing 4 mL culture medium. After 7 or 10 days, adherent colonies were fixed, stained with 0.5% methylene blue for 30 min and colonies were counted using the Innotech Alpha Imager HP (91).
The effect of COH-SR4 was first examined in a NCI panel of cancer cell lines, the results of which indicated good activity of COH-SR4 towards lung cancer (FIG. 78A). […] Values are presented as mean±SD from two separate determinations with eight replicates each (n=16) (FIG. 78B). The COH-SR4 treatment exerted a significant inhibitory effect on the survival of lung cancer cells [IC50: H1417 cells-1.2±0.2 μM, H1618 cells-1.5±0.2 μM, H358 cells-2.1±0.2 μM and H520 cells-2.4±0.3 μM]. […] Following initial screening for the anticancer activity of COH-SR4, the effect of COH-SR4 on clonogenic potential was studied. Standard colony-forming assay was performed and the colonies were counted using Innotech Alpha Imager HP. […] The effect of COH-SR4 on induction of apoptosis was further investigated. […] TUNEL assay was performed using Promega fluorescence detection kit and examined using Zeiss LSM 510 META laser-scanning fluorescence microscope with filters 520 and 620 nm. […]

For a further data set, the system named is SK-Mel-2. Briefly: Colony formation assay, SK-Mel-2. Type of data set: cell-based, human. As to conditions: 5 μM. As for the experimental part: as §1

In the case of `O=C(Nc1cc(Cl)cc(Cl)c1)Nc1cc(Cl)cc(Cl)c1` [COH-SR4, 1,3-bis(3,5-dichlorophenyl) urea], in the data set with human VEGF promoter, the “luciferase expression (VEGF promoter)” value is given as “inhibited luciferase expression of VEGF protein”. In addition, the “intracellular AMP:ATP ratios in liver” value with AMPK, ACC (5 mg/kg B.W.) is given as “increased”. In addition, the “AMPK and ACC phosphorylations in liver” value with AMPK, ACC is “Increased AMPK and ACC phosphorylations”. In data set [1], this molecule yielded a serum concentration of 342 ± 44 ng/mL. The “serum concentration (equivalent)” value in data set [1] came to 1000 ± 220 nM. In addition, the colony formation was 43±7% with A2058 (5 μM); 37±4% in the data set with A2058 (10 μM, vs untreated control); 48±9% in the data set on H1618; 48±6% with SK-Mel-2.

These data come from patent publication US9808434B2, “Compound for treating cancer and diabetes” (CITY OF HOPE, priority 2011, dated 2017).
